Holding throughout (format): in vivo
Assay [1] has as its system greenhouse red spider mite (Tetranychus urticae). Kind of assay: Tetranychus urticae spray test, OP-resistant. Conditions: 100 g/ha, after 6 days, bean leaf disks. Here is the method:
Tetranychus Urticae—Spray Test, OP-Resistant
(§1) • Solvent: 78.0 parts by weight of acetone • 1.5 parts by weight of dimethylformamide • Emulsifier: alkylaryl polyglycol ether
(§2) To produce a suitable active compound formulation, 1 part by weight of active compound is dissolved using the stated parts by weight of solvent and made up with water containing an emulsifier concentration of 1000 ppm until the desired concentration is attained. To produce further test concentrations, the formulation is diluted with emulsifier-containing water.
Disks of bean leaves (Phaseolus vulgaris) infested with all stages of the greenhouse red spider mite (Tetranychus urticae) are sprayed with an active compound formulation of the desired concentration.
After 6 days, the efficacy in % is determined. 100% means that all the spider mites have been killed; 0% means that no spider mites have been killed.

Assay [2] has as its system green peach aphids (Myzus persicae). The assay can be described thus: Myzus persicae oral test. The note with it: 120 h, 0.8 ppm, after 5 days, read-out: efficacy in %. Here is the method: Myzus Persicae—Oral Test • Solvent: 100 parts by weight of acetone To produce a suitable active compound formulation, 1 part by weight of active compound is dissolved using the specified parts by weight of solvent and made up with water until the desired concentration is attained. 50 μl of the active compound preparation are transferred into microtitre plates and made up to a final volume of 200 μl with 150 μl of IPL41 insect medium (33%+15% sugar). Subsequently, the plates are sealed with parafilm, which a mixed population of green peach aphids (Myzus persicae) within a second microtitre plate is able to puncture and imbibe the solution through. After 5 days, the efficacy in % is determined. 100% means that all the aphids have been killed; 0% means that no aphids have been killed.

The subject of assay [3] is fall armyworm (Spodoptera frugiperda). The assay can be described thus: Spodoptera frugiperda spray test. Conditions: foliar, 168 h, after 7 days, corn leaf disks, caterpillars, read-out: efficacy in %. Here is the method: Spodoptera Fruaiperda—Spray Test
as §1, §2
Leaf disks of corn (Zea mays) are sprayed with an active compound formulation of the desired concentration and, after drying, populated with caterpillars of the fall armyworm (Spodoptera frugiperda).
After 7 days, the efficacy in % is determined. 100% means that all the caterpillars have been killed; 0% means that no caterpillar has been killed.

Assay [4] deals with green peach aphid (Myzus persicae). Kind of assay: Myzus persicae spray test. Conditions: foliar, 120 h, after 5 days, Chinese cabbage leaf disks, read-out: efficacy in %. Here is the method: Myzus Persicae—Spray Test
(§3) • Solvent: 78 parts by weight of acetone • 1.5 parts by weight of dimethylformamide • Emulsifier: alkylaryl polyglycol ether
as §2
Disks of Chinese cabbage leaves (Brassica pekinensis) infested by all stages of the green peach aphid (Myzus persicae) are sprayed with an active compound formulation of the desired concentration.
After 5 days, the efficacy in % is determined. 100% means that all the aphids have been killed; 0% means that no aphids have been killed.

Another assay has as its system Diabrotica balteata. The assay can be described thus: Diabrotica balteata spray test. Conditions: topical, 168 h, 100 g/ha (=32 μg/cavity), after 7 days, sprayed germinated wheat grains, beetle larvae, read-out: efficacy in %. Here is the method:
Diabrotica balteata—Spray Test
as §3, §2
Pre-swollen wheat grains (Triticum aestivum) are incubated in a multiwell plate filled with agar and a little water for one day (5 seed grains per cavity). The germinated wheat grains are sprayed with an active compound formulation of the desired concentration. Subsequently, each cavity is infected with 10−20 beetle larvae of Diabrotica balteata.
After 7 days, the efficacy in % is determined. 100% means that all wheat plants have grown as in the untreated, uninfected control; 0% means that no wheat plant has grown.

The compound `CCS(=O)(=O)c1c(-c2nc3cc(C(F)(F)F)nnc3n2C)ncc2cc(C3(C#N)CC3)ccc12` [Example I-9] had an efficacy in % in assay [1] of 90%. Further, in assay [2], the pest or weed control at 0.8 ppm was found to be 90%. The pest or weed control at 100 g/ha in assay [3] stood at 100%; in assay [4], 90%; in the assay on Diabrotica balteata, 100%.

(Values after patent publication US12297196B2, “Condensed bicyclic heterocyclic derivatives as pest control agents” (Bayer Aktiengesellschaft, priority 2019, dated 2025).)
